Test results from patent US8546414B2, “Ion channel modulators and methods of use” (Vertex Pharmaceuticals Incorporated, priority 2004, dated 2013).
pIC50: −log10 of the molar value.

What was measured:
NaV1.3 = target: T1, NaV1.3 (Homo sapiens, UniProt Q9NY46); test: VIPR optical membrane potential assay with electrical stimulation, NaV1.3; type: cell-based; conditions: Table 9, NaV 1.3 receptors
T1 construct: expressed in transfected cells; host or cells: HEK293
Procedure: (§1) Antagonist properties of test compounds were assessed as follows. Cells expressing the NaV of interest were placed into microtiter plates. After an incubation period, the cells were stained with fluorescent dyes sensitive to the transmembrane potential. The test compounds were added to the microtiter plate. The cells were stimulated with either chemical or electrical means to evoke a NaV dependent membrane potential change from unblocked channels, which was detected and measured with trans-membrane potential-sensitive dyes. Antagonists were detected as a decreased membrane potential response to the stimulus.
(§2) VIPR® Optical Membrane Potential Assay Method with Electrical Stimulation
The following is an example of how NaV1.3 inhibition activity is measured using the optical membrane potential method#2. Other subtypes are performed in an analogous mode in a cell line expressing the NaV of interest.
HEK293 cells stably expressing NaV1.3 are plated into 96-well microtiter plates. After an appropriate incubation period, the cells are stained with the voltage sensitive dyes CC2-DMPE/DiSBAC2(3) as follows.
(§3) 2X CC2-DMPE=20 μM CC2-DMPE: 10 mM CC2-DMPE is vortexed with an equivalent volume of 10% pluronic, followed by vortexing in required amount of HBSS containing 10 mM HEPES. Each cell plate will require 5 mL of 2×CC2-DMPE. 50 μL of 2×CC2-DMPE is added to wells containing washed cells, resulting in a 10 μM final staining concentration. The cells are stained for 30 minutes in the dark at RT.
2X DISBAC2(3) with ABSC1=6 μM DISBAC2(3) and 1 mM ABSC1: The required amount of 10 mM DISBAC2(3) is added to a 50 ml conical tube and mixed with 1 μL 10% pluronic for each mL of solution to be made and vortexed together. Then HBSS/HEPES is added to make up 2× solution. Finally, the ABSC1 is added.
The 2X DiSBAC2(3) solution can be used to solvate compound plates. Note that compound plates are made at 2× drug concentration. Wash stained plate again, leaving residual volume of 50 Add 50 μL/well of the 2X DiSBAC2(3) w/ABSC1. Stain for 30 minutes in the dark at RT.
(§4) The instrument comprises a microtiter plate handler, an optical system for exciting the coumarin dye while simultaneously recording the coumarin and oxonol emissions, a waveform generator, a current- or voltage-controlled amplifier, and a device for inserting electrodes in well. Under integrated computer control, this instrument passes user-programmed electrical stimulus protocols to cells within the wells of the microtiter plate.
• 1. Insert or use electrodes into each well to be assayed. • 2. Use the current-controlled amplifier to deliver stimulation wave pulses for 3 s. Two seconds of pre-stimulus recording are performed to obtain the un-stimulated intensities. Five seconds of post-stimulation recording are performed to examine the relaxation to the resting state. Data Analysis
(§5) Data are analyzed and reported as normalized ratios of background-subtracted emission intensities measured in the 460 nm and 580 nm channels. Background intensities are then subtracted from each assay channel. Background intensities are obtained by measuring the emission intensities during the same time periods from identically treated assay wells in which there are no cells. The response as a function of time is then reported as the ratios obtained using the following formula: […]
(§6) The data is further reduced by calculating the initial (Ri) and final (Rf) ratios. These are the average ratio values during part or all of the pre-stimulation period, and during sample points during the stimulation period. The response to the stimulus R=Rf/Ri is then calculated.
Control responses are obtained by performing assays in the presence of a compound with the desired properties (positive control), such as tetracaine, and in the absence of pharmacological agents (negative control). Responses to the negative (N) and positive (P) controls are calculated as above. The compound antagonist activity A is defined as: […]

CaV2.2 = target: T2, CaV2.2 (Homo sapiens, UniProt Q00975); test: VIPR optical membrane potential assay with electrical stimulation, CaV2.2; type: cell-based; conditions: Table 9, CaV 2.2 receptors
T2 construct: expressed in transfected cells; host or cells: HEK293
Procedure: A. Optical Methods for Assaying CaV Inhibition Properties of Compounds:
as §1, with “CaV” for “NaV”, “with” for “with either chemical or”
as §2
The following is an example of how CaV2.2 inhibition activity is measured using the optical membrane potential method. Other subtypes are performed in an analogous mode in a cell line expressing the CaV of interest.
HEK293 cells stably expressing CaV2.2 are plated into 96-well microtiter plates. After an appropriate incubation period, the cells are stained with the voltage sensitive dyes CC2-DMPE/DiSBAC2(3) as follows.
as §3, with “Pluronic,” for “pluronic,”
Vortex in required amount of Bath X with beta-cyclodextrin. Each 96 well cell plate will require 5 ml of 2XCC2DMPE. Wash plate with ELx405 with Bath X, leaving a residual volume of 50 μL/well. Add 50 μL of 2XCC2DMPE & […] to each well. Stain for 30 minutes in the dark at RT.
Allow solution to sit for 10 minutes. Slowly mix in 370 mM BaCl2. This solution can be used to solvate compound plates. Note that compound plates are made at 1.5× drug concentration and not the usual 2X. Wash CC2 stained plate, again, leaving residual volume of 50 μL. Add 100 uL/well of the AY17 solution. Stain for 15 minutes in the dark at RT. Run plate on the optical reader.
as §4
Insert or use electrodes into each well to be assayed.
Use the current-controlled amplifier to deliver stimulation wave pulses for 3-5 s. Two seconds of pre-stimulus recording are performed to obtain the un-stimulated intensities. Five seconds of post-stimulation recording are performed to examine the relaxation to the resting state.
as §5, §6
Control responses are obtained by performing assays in the presence of a compound with the desired properties (positive control), such as mibefradil, and in the absence of pharmacological agents (negative control).

T1 sequence (Q9NY46 whole entry): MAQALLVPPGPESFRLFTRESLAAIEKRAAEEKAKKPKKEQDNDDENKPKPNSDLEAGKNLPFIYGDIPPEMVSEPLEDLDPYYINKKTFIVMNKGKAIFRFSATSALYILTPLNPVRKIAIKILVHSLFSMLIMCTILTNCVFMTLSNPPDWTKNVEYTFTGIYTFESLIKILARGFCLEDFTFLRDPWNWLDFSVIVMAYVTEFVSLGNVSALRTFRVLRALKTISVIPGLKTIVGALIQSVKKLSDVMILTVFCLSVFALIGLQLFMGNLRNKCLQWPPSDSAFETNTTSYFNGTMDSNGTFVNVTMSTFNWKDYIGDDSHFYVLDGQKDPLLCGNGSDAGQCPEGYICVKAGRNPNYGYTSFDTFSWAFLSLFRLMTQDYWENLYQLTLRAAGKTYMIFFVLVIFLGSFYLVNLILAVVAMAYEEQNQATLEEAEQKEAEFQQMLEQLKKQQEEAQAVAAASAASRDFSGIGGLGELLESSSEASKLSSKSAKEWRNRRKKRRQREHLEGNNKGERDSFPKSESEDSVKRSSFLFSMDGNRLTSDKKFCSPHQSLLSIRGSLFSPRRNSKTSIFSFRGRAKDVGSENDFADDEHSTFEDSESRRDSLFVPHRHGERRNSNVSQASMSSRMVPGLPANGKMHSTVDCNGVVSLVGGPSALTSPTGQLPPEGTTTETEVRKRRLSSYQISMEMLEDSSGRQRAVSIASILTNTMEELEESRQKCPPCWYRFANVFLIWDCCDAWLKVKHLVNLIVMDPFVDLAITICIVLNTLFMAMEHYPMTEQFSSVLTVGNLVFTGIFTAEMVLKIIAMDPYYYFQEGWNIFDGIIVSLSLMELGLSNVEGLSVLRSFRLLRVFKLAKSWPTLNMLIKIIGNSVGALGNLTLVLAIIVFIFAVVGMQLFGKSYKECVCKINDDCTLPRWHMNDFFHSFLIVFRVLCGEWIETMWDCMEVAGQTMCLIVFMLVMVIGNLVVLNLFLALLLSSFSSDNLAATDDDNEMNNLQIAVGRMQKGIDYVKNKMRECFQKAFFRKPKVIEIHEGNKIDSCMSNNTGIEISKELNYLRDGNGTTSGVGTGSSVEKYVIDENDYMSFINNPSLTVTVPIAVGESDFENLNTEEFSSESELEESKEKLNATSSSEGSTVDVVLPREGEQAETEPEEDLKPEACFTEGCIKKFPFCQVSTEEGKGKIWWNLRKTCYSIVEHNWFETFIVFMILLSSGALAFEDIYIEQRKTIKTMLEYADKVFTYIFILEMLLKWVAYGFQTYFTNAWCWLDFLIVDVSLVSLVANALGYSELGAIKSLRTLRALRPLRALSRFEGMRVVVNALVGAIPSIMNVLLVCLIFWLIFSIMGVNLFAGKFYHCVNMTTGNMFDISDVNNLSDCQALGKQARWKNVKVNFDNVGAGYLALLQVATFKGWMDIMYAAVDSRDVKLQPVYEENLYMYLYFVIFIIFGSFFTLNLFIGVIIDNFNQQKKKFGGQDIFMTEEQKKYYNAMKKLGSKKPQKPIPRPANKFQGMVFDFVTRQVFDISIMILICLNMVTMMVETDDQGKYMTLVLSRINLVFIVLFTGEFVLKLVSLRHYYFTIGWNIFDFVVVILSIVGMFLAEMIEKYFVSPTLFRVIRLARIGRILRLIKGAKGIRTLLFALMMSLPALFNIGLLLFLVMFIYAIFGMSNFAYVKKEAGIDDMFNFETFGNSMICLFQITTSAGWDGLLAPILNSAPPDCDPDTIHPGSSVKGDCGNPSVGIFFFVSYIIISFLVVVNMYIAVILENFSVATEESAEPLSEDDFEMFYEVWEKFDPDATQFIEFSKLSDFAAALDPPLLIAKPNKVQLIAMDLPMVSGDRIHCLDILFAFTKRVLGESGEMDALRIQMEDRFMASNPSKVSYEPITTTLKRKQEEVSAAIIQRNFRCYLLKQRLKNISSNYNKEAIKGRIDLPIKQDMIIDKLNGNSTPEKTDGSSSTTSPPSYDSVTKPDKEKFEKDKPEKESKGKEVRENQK

Row | pIC50 (NaV1.3) | pIC50 (CaV2.2) | SMILES
1 | < 5.00 | < 5.00 | CCCCNC(=O)c1cnc(N2CCOCC2)nc1-c1ccccc1F [compound 233]
2 | < 5.00 | < 5.00 | N#Cc1ccc(-c2nc(N3CCCC3)ncc2C(=O)NCC2CCCCC2)cc1 [compound 346]
3 | < 5.00 | < 5.00 | COc1ccc(CCN(C)c2ncc(C(=O)N3CCCC3)c(-c3ccc(C#N)cc3)n2)cc1OC [compound 292]
4 | < 5.00 | < 5.00 | CC(C)N(Cc1ccccc1)C(=O)c1cnc(N2CCCC2)nc1-c1ccc(C#N)cc1 [compound 211]
5 | < 5.00 | 5.00 to 5.70 | CC1CC(C)CN(C(=O)c2cnc(NCCc3cccc(F)c3)nc2-c2ccc(C#N)cc2)C1 (centres unmarked) [compound 220]
6 | < 5.00 | 5.00 to 5.70 | CCN(Cc1ccccc1)C(=O)c1cnc(N2CCCCC2)nc1-c1ccccc1F [compound 237]
7 | < 5.00 | < 5.00 | CCN(Cc1ccccc1)C(=O)c1cnc(N2CCCC(C(N)=O)C2)nc1-c1ccccc1F (centres unmarked) [compound 289]
8 | < 5.00 | < 5.00 | COc1ccc(CCN(C)c2ncc(C(=O)N(C)CC(C)C)c(-c3ccc(C#N)cc3)n2)cc1OC [compound 271]
9 | < 5.00 | < 5.00 | COCCCNC(=O)c1cnc(NC2CCCCC2)nc1-c1ccc(-c2ccccc2)cc1 [compound 310]
10 | < 5.00 | 5.00 to 5.70 | CCC1CCC(C)N(C(=O)c2cnc(NCCc3ccc(OC)cc3)nc2-c2ccc(C#N)cc2)C1 (centres unmarked) [compound 329]
11 | < 5.00 | < 5.00 | CCC(C)NC(=O)c1cnc(NC2CCCCC2)nc1-c1ccc(C#N)cc1 (centres unmarked) [compound 309]
12 | < 5.00 | < 5.00 | CCN(Cc1ccccc1)C(=O)c1cnc(NCc2ccc(C)o2)nc1-c1ccc(C#N)cc1 [compound 244]
13 | < 5.00 | < 5.00 | CCN(Cc1cccc(C)c1)C(=O)c1cnc(N2CCOCC2)nc1-c1ccc(C#N)cc1 [compound 247]
14 | < 5.00 | < 5.00 | CCN(C)c1ncc(C(=O)N(C)C2CCCCC2)c(-c2ccc(C#N)cc2)n1 [compound 227]
15 | < 5.00 | < 5.00 | Cc1ccc(CNc2ncc(C(=O)N3CCC(C)CC3)c(-c3ccc(C#N)cc3)n2)o1 [compound 261]
16 | < 5.00 | < 5.00 | N#Cc1ccc(-c2nc(NCC3CCCCC3)ncc2C(=O)NCCc2cccc(F)c2)cc1 [compound 345]
17 | < 5.00 | < 5.00 | Cc1cccc(-c2nc(N3CCOCC3)ncc2C(=O)N(Cc2ccccc2)C(C)C)c1 [compound 240]
18 | < 5.00 | < 5.00 | CCN(Cc1cccc(C)c1)C(=O)c1cnc(NCC2CC2)nc1-c1ccccc1F [compound 209]
19 | < 5.00 | < 5.00 | O=C(c1cnc(NCc2ccc3c(c2)OCO3)nc1-c1ccc(-c2ccccc2)cc1)N1CCCCC1 [compound 342]

Row | pIC50 (NaV1.3) | pIC50 (CaV2.2) | SMILES
20 | < 5.00 | < 5.00 | CC1CCCCC1NC(=O)c1cnc(N2CCCC(C(N)=O)C2)nc1-c1ccc(C#N)cc1 (centres unmarked) [compound 286]
21 | < 5.00 | < 5.00 | CCN(Cc1cccc(C)c1)C(=O)c1cnc(N2CCN(C(C)=O)CC2)nc1-c1ccc(C#N)cc1 [compound 208]
22 | < 5.00 | < 5.00 | CCN(C)c1ncc(C(=O)N2CC(C)CC(C)C2)c(-c2ccc(C#N)cc2)n1 (centres unmarked) [compound 347]
23 | < 5.00 | < 5.00 | COCCNc1ncc(C(=O)N2CC(C)CC(C)C2)c(-c2cccc(C)c2)n1 (centres unmarked) [compound 325]
24 | < 5.00 | < 5.00 | CC(=O)N1CCN(c2ncc(C(=O)N3CCOCC3)c(-c3cccc(C)c3)n2)CC1 [compound 226]
25 | < 5.00 | < 5.00 | COc1ccccc1CCNC(=O)c1cnc(N2CCOCC2)nc1-c1ccccc1F [compound 302]
26 | < 5.00 | < 5.00 | O=C(c1cnc(N2CCOCC2)nc1-c1ccccc1F)N1CCCCC1 [compound 323]
27 | < 5.00 | 5.00 to 5.70 | CC(C)CN(C)C(=O)c1cnc(NCc2ccc3c(c2)OCO3)nc1-c1ccc(C#N)cc1 [compound 263]
28 | < 5.00 | < 5.00 | COCCCNc1ncc(C(=O)N(C)C2CCCCC2)c(-c2ccc(C#N)cc2)n1 [compound 303]
29 | < 5.00 | < 5.00 | CCN(Cc1ccccc1)C(=O)c1cnc(N2CCOCC2)nc1-c1ccc(C#N)cc1 [compound 313]
30 | < 5.00 | < 5.00 | CCCCNC(=O)c1cnc(NCCCOC)nc1-c1cccc(C)c1 [compound 332]
31 | < 5.00 | < 5.00 | CCN(C)c1ncc(C(=O)NCCCOC)c(-c2cccc(C)c2)n1 [compound 223]
32 | < 5.00 | < 5.00 | CC(=O)NCCNc1ncc(C(=O)N(Cc2ccccc2)C(C)C)c(-c2ccccc2F)n1 [compound 291]
33 | < 5.00 | 5.00 to 5.70 | CC(=O)NCCNc1ncc(C(=O)N2CCC(C)CC2)c(-c2ccc(-c3ccccc3)cc2)n1 [compound 251]
34 | < 5.00 | 5.00 to 5.70 | CC(C)N(Cc1ccccc1)C(=O)c1cnc(NCC2CC2)nc1-c1ccccc1F [compound 277]
35 | < 5.00 | < 5.00 | Cc1cccc(-c2nc(NCc3cccc(Cl)c3)ncc2C(=O)N(C)CC(C)C)c1 [compound 235]
36 | < 5.00 | 5.00 to 5.70 | CCN(Cc1cccc(C)c1)C(=O)c1cnc(N(C)CC)nc1-c1ccccc1F [compound 246]
37 | < 5.00 | < 5.00 | COCCNc1ncc(C(=O)N(C)C2CCCCC2)c(-c2ccccc2F)n1 [compound 276]

Row | SMILES | pIC50 (NaV1.3) | pIC50 (CaV2.2)
38 | CCCCNc1ncc(C(=O)N(C)CC(C)C)c(-c2cccc(C)c2)n1 [compound 262] | < 5.00 | < 5.00
39 | N#Cc1ccc(-c2nc(NCc3ccccc3C(F)(F)F)ncc2C(=O)NCC2CC2)cc1 [compound 248] | < 5.00 | < 5.00
40 | COCCNc1ncc(C(=O)NCC2CCCCC2)c(-c2ccc(-c3ccccc3)cc2)n1 [compound 297] | < 5.00 | < 5.00
